From US9320271B2, “Microbial composition” (Rohm and Haas Company, priority 2011, dated 2016) come the findings set out here.

Test [1] concerns Escherichia coli (10536 strain). The test is described as follows: 15 second contact kill test versus E. coli (actives in water, mean bacterial survival NMBS). Format: cell-based. The conditions noted are these: for MBC (minimum biocidal concentration of antimicrobial components): Table 27; for NMBS: no alcohol, 15 s. On the procedure: 15 Second Contact Kill Test Versus E. Coli and S. Aureus
Antimicrobial efficacy is tested against a representative pathogenic bacterial organism, Gram negative Escherichia coli. Concentrations of actives are expressed in terms of the percentage weight/volume (% w/v) throughout Example 1.
An overnight culture of Escherichia coli (10536 strain) was prepared in 50 ml total volume of TSB broth, grown for ca. 18 hrs at 37° C. and shaken at 150 rpm. 1 ml of this overnight E. coli culture was transferred to 50 ml of fresh TSB broth and incubated at 37° C. at 150 rpm for ca. 4 hours. This culture was separated into equal volumes and centrifuged at 4000 rpm for 15 minutes, washed with sterile saline (0.85% NaCl), centrifuged once more and re-suspended in saline to give a final concentration of 0.8 OD620 equivalent to about 10^8 cells per milliliter for this particular organism. Here, OD620 indicates the absorbance of a sample in a cuvette of 1.0 cm path length at a wavelength of 620 nm. This bacterial stock was used for assaying against antimicrobial actives (in triplicate). S. Aureus Bacterial Stock
The following assay describes the testing of 8 materials using 6 dilutions across half of a 96-well micro titre plate (MTP). Using this approach it is possible to assay 16 actives (without replicates) with one full dilution plate, replicating this set up in two halves of the plate columns, 1-6 and 7-12. 1M solutions of the test actives were prepared in dimethylsulphoxide (DMSO). […] Aliquots (270 μl) of the materials at 1.11 times the final concentration were dispensed into the wells of the MTP along one column (A1-H1). This MTP was labelled as the “Screening plate”. In another MTP, labelled as the “Dilution plate”, […] of D/E neutralising solution from DIFCO Composition was added to column 1. The composition of the neutralising solution was as follows: pancreatic digest of casein, 5.0 g/L; Yeast Extract, 2.5 g/L; Dextrose, 10 g/L, sodium thioglycollate, 1.0 g/L, sodium thiosulphate, 6.0 g/L; sodium bisulphite, 2.5 g/L; Polysorbate 80, 5.0 g/L; lecithin 7.0 g/L; bromocresol purple, 0.02 g/L with a pH in the range 7.6±0.2. 270 μl of tryptone diluent solution was added to all the remaining wells of the Dilution MTP (columns 2-6). Bacterial stock (30 μl) was then added to the prepared 270 μl of the solution of actives in the Screening Plate and mixed, using a multichannel pipette with 8 tips to aspirate and dispense the same volume of bacterial stock in parallel to 8 wells in rows A-H. After a contact time of 15 seconds, the mixtures were quenched by transferring 30 μl volumes of the mixtures into the 270 μl D/E neutralising solution in the prepared dilution plate, using aspiration to mix. After exactly 5 minutes in the D/E neutralising solution, 30 μl volumes were transferred from column 1 to column 2 of the Dilution MTP and mixed, before transferring further 30 μl volumes from column 2 into column 3. This process was repeated serially diluting the bacteria across the plate to column 6. 30 μl volumes from each well in the Dilution MTP were transferred onto pre-labelled segment of Tryptone Soya Agar (TSA) plates starting from the lowest bacterial concentration (highest dilution, column 6) to the highest bacterial concentration (column 1). The TSA plates were allowed to stand for ca. 2 hours so that the 30 μl inocula spots could dry and the plates were then inverted and incubated overnight at 37° C. before enumerating the bacterial colonies at the labelled dilutions to determine the effects of the actives on bacterial growth. Calculation of Results Mean bacterial survival numbers NMBS (expressed in Log CFU/ml) are obtained by first determining the segment of the TSA plate where the number of bacterial colonies is countable.

In test [2] the test system is Escherichia coli (E. coli—ATCC #10536). The test is described as follows: Automated assessment of efficacy in surfactant base (2.85% sodium cocoyl glycinate and 1.85% sodium lauroamphoacetate, pH 10.0), 15 seconds exposure. Format: cell-based. To be noted: for Δ OD 450 nm = OD450 (time = 16 hours) − OD450 (time zero), Mean / Δ OD 590 nm OD590 (time = 16 hours) − OD590 (time zero), Mean / No. of replicates showing growth (out of 4): alone, model surfactant solution; for MBC (minimum biocidal concentration): in 2.85% sodium cocoyl glycinate + 1.85% sodium lauroamphoacetate solution at pH 10, E. coli. On the procedure:
Test Methodology for Automated Assessment of Efficacy in Surfactant Base Microbiocidal Activity of Actives as Per the Invention in a Model Surfactant Medium Test Methodology for Automated Assessment of Efficacy in Surfactant Base In these examples, the efficacy of combinations of actives were tested in a surfactant cleansing formulation comprising 2.85% sodium cocoyl glycinate and 1.85% sodium lauroamphoacetate. This corresponds to a 50% in use dilution with water of a neat formulation containing 5.7% cocoyl glycinate and […] % sodium, lauroamphoacetate during hand washing. Solutions were prepared such that the concentrations of the surfactant components and test actives were 1.1× the final desired concentration in order to allow for dilution with the bacterial inoculum in the test. The solutions were manually adjusted to pH 10.0 by dropwise addition of sodium hydroxide solution, as measured with a pH meter at ambient temperature. The efficacy of the combinations of the present invention was determined against Escherichia coli (E. coli—ATCC #10536), at a concentration of approximately 1×10^8 bacteria per mL. Tests were conducted using standard microtiter plate assays using an automated liquid handling system. 270 μl of the surfactant test solution was pipetted into each well of the microtitre plate and 30 μl of the bacterial suspension was then added. Alter exactly 15 seconds of bacterial exposure, a 30 μl volume of bacterial cells was withdrawn and transferred to 270 μl of D/E quench solution. After 5 minutes in the D/E quench, the optical density (OD) was measured for each plate in turn at two specific wavelengths (450 nm and 590 nm). These provide a dual check of antimicrobial activity, as the OD450 reading is specific for the yellow colour of D/E quench when bacterial growth is observed, whereas OD590 is specific for the initial purple colour of the D/E quench which is retained if no bacterial growth is observed. After the time zero OD measurements, plates were then incubated at 37° C. overnight (16 hours) before repeating the OD measurements. Delta OD values were calculated by subtracting […]. Bacterial growth is observed as an increase in OD450 and a decrease in ΔOD590. To identify antibacterially efficacious systems (those preventing appreciable bacterial growth after incubation), the following threshold changes in OD readings have been adopted: if (1). OD450 increases by less than 0.2 absorbance unit on incubation and (2). OD590 decreases by less than 0.35 unit on incubation. Conversely, where OD450 increases by more than 0.2 AU and OD590 decreases by more than 0.35 unit after incubation, corresponding to a colour shift from purple to yellow, the test system allows bacterial growth and is not deemed efficacious. Four replicate measurements in the same plate have been made for each test system. The number of replicate wells showing either bacterial growth or no growth is also readily assessed by eye by following the colour change. Dose responses for individual components and binary mixtures of actives at a fixed concentration ratio were generated by sequential dilution of liquors with further surfactant solution to obtain a series of endpoints. […] In some selected cases, the combinations were also tested at the weight ratio 1:1.

Where [3] appears, read: Table 28, E. coli, component alone.

Each structure is given as a SMILES string.

On to `CC1=CC[C@@H](CO)[C@H](C)C1` (relative stereo) [floralol, Trans-4,6-dimethyl-3-Cyclohexene-1-methanol], for which the “MBC (minimum biocidal concentration of antimicrobial components)” value in test [1] (component alone) was found to be 0.3 % w/v. Also, the “Antimicrobial alcohol MBC” value in test [1] (setting [3]) is 0.3 % (w/v). In addition, the “Δ OD 450 nm = OD450 (time = 16 hours) − OD450 (time zero), Mean” value in test [2] (0.2% w/v) was −1.43; in test [2] (0.3% w/v), −1.20; in test [2] (0.5% w/v) it was −0.06; in test [2] ([…] w/v), −0.29. Moreover, the “Δ OD 590 nm OD590 (time = 16 hours) − OD590 (time zero), Mean” value in test [2] (0.2% w/v) was 0.35; in test [2] (0.3% w/v) it was 0.55; in test [2] (0.5% w/v), 0.09; in test [2] ([…] w/v), 0.23. Also, the “No. of replicates showing growth (out of 4)” value in test [2] (0.5% w/v) was found to be 0. Moreover, the “MBC (minimum biocidal concentration)” value in test [2] came to 0.4 % w/v.
For `Oc1ccc(Cc2ccccc2)cc1` [4-benzylphenol, 4-benzyl phenol], the NMBS in test [1] (0.0125% 4-benzylphenol, E. coli) is given as 7.75 log CFU/ml; in test [1] (0.05% 4-benzylphenol, E. coli), 0.00 log CFU/ml; in test [1] ([…] 4-benzylphenol, E. coli), 4.20 log CFU/ml. Besides, the “MBC (minimum biocidal concentration of antimicrobial components)” value in test [1] (component alone) is 0.05 % w/v. For the same molecule, in test [1] (setting [3]), the “Phenolic compound MBC” value is reported as 0.5 % (w/v).
On to `CC1CCC(CO)C(C)C1` (stereo not drawn) [dihydrofloralol, 2,4-Dimethylcyclohexylmethanol], for which the “MBC (minimum biocidal concentration of antimicrobial components)” value in test [1] (component alone) was found to be 0.5 % w/v. The “Antimicrobial alcohol MBC” value in test [1] (setting [3]) was 0.5 % (w/v). For the same molecule, the “Δ OD 450 nm = OD450 (time = 16 hours) − OD450 (time zero), Mean” value is −1.39 in test [2] (0.2% w/v), −1.15 in test [2] (0.3% w/v), −0.06 in test [2] (0.5% w/v) and −0.28 in test [2] ([…] w/v). Moreover, the “Δ OD 590 nm OD590 (time = 16 hours) − OD590 (time zero), Mean” value in test [2] (0.2% w/v) is recorded as 0.41; in test [2] (0.3% w/v) it was 0.60; in test [2] (0.5% w/v) it was 0.10; in test [2] ([…] w/v) it was 0.28. In addition, the results for the “No. of replicates showing growth (out of 4)” value in test [2] (0.3% w/v) and in test [2] (0.5% w/v) were 4 and 0, respectively. In test [2], the “MBC (minimum biocidal concentration)” value stood at 0.4 % w/v.
